Results from ChEMBL document CHEMBL3856265, “Conditional changes enhanced production of bioactive metabolites of marine derived fungus Eurotium rubrum” (Bioorg Med Chem Lett, 2016).
pIC50: −log10 of the molar value.

Test: Inhibition of melanogenesis in theophylline-stimulated mouse B16-4A5 cells assessed as reduction in melanin level incubated for 72 hrs
Type: functional, cell-based
Conditions: B16-4A5, 72 h

Work on `OC[C@H]1O[C@H](Oc2ccc(O)cc2)[C@H](O)[C@@H](O)[C@@H]1O` yielded a pIC50 of 3.21.
`C=CC(C)(C)c1[nH]c2c(CC=C(C)C)cc(CC=C(C)C)cc2c1C[C@@H]1NC(=O)[C@H](C)NC1=O` [ECHINULIN] gave a pIC50 of 4.17.
